From patent publication US9498412B2, “Method for producing microcapsules with a sun protection effect” (Greenjoy Biotech Co., Ltd., priority 2014, dated 2016)
Like-named read-outs stand apart in the source and are kept apart here.

Type: in vitro ADME
Settings: Landrace, pig, 3 % in mineral oil
Experimental: 5. In Vitro Transdermal Delivery Analysis:
(1) Preparing penetration membranes from a swine skin: An ear skin of a 6-month-old Landrace pig was prepared and cleaned with deionized water. The upper skin of the pig ear was cut by a scalpel to remove the fat layer. Then, the pig ear was cut into a plurality of penetration membranes each having an area of 1.5×1.5 cm^2 and each having a thickness of 605 μm. The penetration membranes were soaked in phosphate buffer saline (PBS), were sealed in a bag, and were frozen for future use.
(2) Before experiment, the penetration membranes were unfrozen in PBS to room temperature such that the gaps between the keratinocyte cells returned to their natural state. The penetration membranes were fixed in a Franz-type diffusion cell (see FIG. 2). The diffusion area was 0.636 cm^2. To test the skin integrity, the upper and lower sections of the diffusion cell were filled with 50% ethanol+50% PBS. After removing bubbles from the lower chamber, a sample of 0.5 g was placed into the upper, donor cell, and 50% ethanol+50% PBS was placed into the lower, receptor cell having a volume of 5.3 mL. A thermostat water tank heater was used to control the water temperature to be 35° C.±1. Stirring was carried out by using a magnet to balance the drug concentration distribution in the receptor cell.
(3) Each experiment used 5 diffusion cells to obtain the average value. 50 μL was sampled from the receptor cell and analyzed by HPLC. The same amount of a physiological solution was filled back into the receptor cell to maintain the total volume in the receptor cell.
(4) The injected volume was 50 μL. The detection wavelength was 260 nm. A mixture of 88% methanol, 11% water, and 1% acetic acid was used as the mobile phase in isocratic elution. The flow rate of the mobile phase was 1.0 mL/min. OMC of 1 ppm, 10 ppm, 50 ppm, and 100 ppm and avobenzone standard solution were used to create a calibration curve. Each concentration was detected three times to obtain the average value. Peak-ABC Chromatography Data Handling System (manufactured by Great Tide Instruments, Taiwan) was used to capture and handle the signals. A sample of 50 μL was sampled from the receptor cell and analyzed by HPLC. Peak-ABC Chromatography Data Handling System was used to analyze the concentration for calculating the lag time and the flux.
The Franz-type diffusion cell system was used to assess the penetration characteristics of carrier-entrapped filters. […] The stratum corneum is an important barrier of the skin for resisting alien objects and is also a hindrance to transdermal delivery of an active constituent. During an initial stage of passage from the donor site to the receptor site through the skin, there is a lag time for the active constituent to penetrate the membrane of the saturated skin. After that, the active constituent remains in steady-state diffusion for a period of time during which the diffusion flux is not changed.
Assume the concentrations of the active constituent at the donor site and the receptor site of the penetration membrane are respectively Cv and Cr, the mechanism of initial transdermal absorption can be explained by Fick's first law of diffusion: J=dQ/Dt=DAK(Cv−Cr)/h
wherein J is the transdermal flux, Q is the cumulative penetration amount, D is the diffusion coefficient, A is the diffusional surface area, K is the partition coefficient, and h is the diffusional pathlength.
Since Cr is very small at the initial stage of penetration, DC=(Cv−Cr) arrpoximates Cv. The transdermal flux is in proportion to the concentration difference ([…]). Thus, the slope of an optimal line in a diagram obtained from the cumulative penetration quantity Q and the penetration time t is the transdermal flux J. The lag time parameter can be obtained by linear extrapolation to the intersection on X axis. […]

Row | Compound | Amount in receptor site (0 h) | Transdermal flux (%) (0 h) | lag time | Amount in receptor site (0.5 h) | Transdermal flux (%) (0.5 h) | Amount in receptor site (1 h) | Transdermal flux (%) (1 h) | Amount in receptor site (2 h) | Transdermal flux (%) (2 h) | Amount in receptor site (3 h) | Transdermal flux (%) (3 h) | Amount in receptor site (6 h) | Transdermal flux (%) (6 h) | transdermal flux (6 h) | transdermal flux (4 h)
1 | COc1ccc(C(=O)CC(=O)c2ccc(C(C)(C)C)cc2)cc1 [avobenzone] | 0 μg/cm^2 | 0% | 0.23 h | 0 μg/cm^2 | 0% | 20.12 ± 2.19 μg/cm^2 | 0.09 ± 0.01% | 48.21 ± 2.73 μg/cm^2 | 0.20 ± 0.01% | 84.85 ± 4.27 μg/cm^2 | 0.36 ± 0.02% | 161.26 ± 3.74 μg/cm^2 | 0.68 ± 0.02% | 28.237 μg/cm^2·hr | 
2 | CCCCC(CC)COC(=O)C=Cc1ccc(OC)cc1 (stereo not shown) [OMC, octyl methoxycinnamate] | 0 μg/cm^2 | 0% | 0.15 h | 0 μg/cm^2 | 0% | 31.84 ± 1.81 μg/cm^2 | 0.13 ± 0.01% | 65.15 ± 7.96 μg/cm^2 | 0.28 ± 0.03% | 121.97 ± 4.95 μg/cm^2 | 0.52 ± 0.02% | 227.55 ± 12.94 μg/cm^2 | 0.96 ± 0.05% |  | 40.069 μg/cm^2·hr
